This assay deals with ovariectomized (OVX) female Sprague Dawley rats. Kind of assay: Osteoporosis Test Procedure (ovariectomized rat, femur density). Type of assay: in vivo. Particulars: orally administered in 20% hydroxypropyl cyclodextrin, daily for 35 days, compared to intact, vehicle treated controls. The text has this: Seventy-five day old female Sprague Dawley rats (weight range of 200 to 225 g) are obtained from Charles River Laboratories (Portage, Mich.). The animals are either bilaterally ovariectomized (OVX) or exposed to a Sham surgical procedure at Charles River Laboratories, and then shipped after one week. Upon arrival, they are housed in metal hanging cages in groups of 3 or 4 per cage and have ad libitum access to food (calcium content approximately 0.5%) and water for one week. Room temperature is maintained at 22.2°±1.70° C. with a minimum relative humidity of 40%. The photoperiod in the room is 12 hours light and 12 hours dark.
After a one week acclimation period (therefore, two weeks post-OVX) daily dosing with test compound is initiated. […] The animals are then sacrificed by asphyxiation with CO2, the uterus is removed through a midline incision, and a wet uterine weight is determined.
Following the General Preparation Procedure, infra, the rats are treated daily for 35 days (6 rats per treatment group) and sacrificed by carbon dioxide asphyxiation on the 36th day. The 35 day time period is sufficient to allow maximal reduction in bone density, measured as described herein. […]
The right femurs are excised and digitilized x-rays generated and analyzed by an image analysis program (NIH image) at the distal metaphysis. […]

Consider one compound from US6391892B1, “Naphthyl pharmaceutical compounds” (Eli Lilly and Company, priority 1995, dated 2002).

As for `C#C[C@]1(O)CC[C@H]2[C@@H]3CCc4cc(O)ccc4[C@H]3CC[C@@]21C` [ethynyl estradiol, 17α-ethynyl estradiol], the “reduction in femur density caused by ovariectomy” value is “prevented this loss”.
